Results reported in paper PMC5218480 (PLoS ONE, 2017).

Tested on: MV-4-11 cells
Assay: Gene expression microarray analysis (Affymetrix PrimeView) and GSEA
Type: cell-based, human
Parameters: RFU PODN (11730768_x_at) / Fold change /veh PODN (11730768_x_at) / RFU LINC00158 (11744669_a_at) / Fold change /veh LINC00158 (11744669_a_at) / RFU DUSP10 (11751237_a_at) / Fold change /veh DUSP10 (11751237_a_at) / RFU ID3 (11757404_x_at) / Fold change /veh ID3 (11757404_x_at) / RFU PLEKHG5 (11737974_s_at) / Fold change /veh PLEKHG5 (11737974_s_at) / RFU LRRC4B (11730491_at) / Fold change /veh LRRC4B (11730491_at) / RFU GIMAP4 (11747438_a_at) / Fold change /veh GIMAP4 (11747438_a_at) / RFU KRT8 (11758183_x_at) / Fold change /veh KRT8 (11758183_x_at) / RFU CNN1 (11734310_a_at) / Fold change /veh CNN1 (11734310_a_at) / RFU VPS37D (11726825_at) / Fold change /veh VPS37D (11726825_at) / RFU C10orf10 (11716522_x_at) / Fold change /veh C10orf10 (11716522_x_at) / RFU KIR2DL2 /// KIR2DL4 /// KIR2DL5A /// KIR2DL5B /// KIR2DS1 /// KIR2DS2 /// KIR2DS3 /// KIR2DS4 /// KIR3DL3 /// KIR3DL3 /// KIR3DS1 (11738374_at) / Fold change /veh KIR2DL2 /// KIR2DL4 /// KIR2DL5A /// KIR2DL5B /// KIR2DS1 /// KIR2DS2 /// KIR2DS3 /// KIR2DS4 /// KIR3DL3 /// KIR3DL3 /// KIR3DS1 (11738374_at) / RFU C1QL1 (11718748_at) / Fold change /veh C1QL1 (11718748_at) / RFU TMPRSS4 (11747572_a_at) / Fold change /veh TMPRSS4 (11747572_a_at) / RFU HAMP (11756126_x_at) / Fold change /veh HAMP (11756126_x_at) / RFU RNFT2 (11725882_a_at) / Fold change /veh RNFT2 (11725882_a_at) / RFU NR4A2 (11747474_a_at) / Fold change /veh NR4A2 (11747474_a_at) / RFU ABCC12 (11746883_a_at) / Fold change /veh ABCC12 (11746883_a_at) / RFU TMEM136 (11760407_x_at) / Fold change /veh TMEM136 (11760407_x_at) / RFU CLDN22 /// WWC2 (11732394_at) / Fold change /veh CLDN22 /// WWC2 (11732394_at) / RFU HLA-DPB1 (11760878_x_at) / Fold change /veh HLA-DPB1 (11760878_x_at) / RFU SPINT1 (11716480_a_at) / Fold change /veh SPINT1 (11716480_a_at) / RFU GAP43 (11754022_s_at) / Fold change /veh GAP43 (11754022_s_at) / RFU A4GNT (11735810_at) / Fold change /veh A4GNT (11735810_at) / RFU PRB3 (11715151_x_at) / Fold change /veh PRB3 (11715151_x_at) / RFU TUBB4B (11761932_at) / Fold change /veh TUBB4B (11761932_at) / RFU CAPN14 (11732068_a_at) / Fold change /veh CAPN14 (11732068_a_at) / RFU TMCC2 (11721928_a_at) / Fold change /veh TMCC2 (11721928_a_at) / RFU IRGQ (11745062_a_at) / Fold change /veh IRGQ (11745062_a_at) / RFU FAM174B (11720279_a_at) / Fold change /veh FAM174B (11720279_a_at) / RFU TMPRSS4 (11748680_a_at) / Fold change /veh TMPRSS4 (11748680_a_at) / RFU FAM212B (11763350_a_at) / Fold change /veh FAM212B (11763350_a_at) / RFU PLEKHG5 (11743358_a_at) / Fold change /veh PLEKHG5 (11743358_a_at) / RFU ZSCAN30 (11745921_a_at) / Fold change /veh ZSCAN30 (11745921_a_at) / RFU CMKLR1 (11741424_a_at) / Fold change /veh CMKLR1 (11741424_a_at) / RFU LOC101060620 /// MAPK8IP1 (11723275_at) / Fold change /veh LOC101060620 /// MAPK8IP1 (11723275_at) / RFU SPTSSB (11747773_x_at) / Fold change /veh SPTSSB (11747773_x_at) / RFU PRSS12 (11739890_at) / Fold change /veh PRSS12 (11739890_at) / RFU BIN1 (11741810_x_at) / Fold change /veh BIN1 (11741810_x_at) / RFU WNT11 (11732464_a_at) / Fold change /veh WNT11 (11732464_a_at) / RFU C10orf10 (11716521_a_at) / Fold change /veh C10orf10 (11716521_a_at) / RFU C5orf56 (11738089_at) / Fold change /veh C5orf56 (11738089_at) / RFU CYB561 (11721691_x_at) / Fold change /veh CYB561 (11721691_x_at) / RFU ANKRD19P (11752326_a_at) / Fold change /veh ANKRD19P (11752326_a_at) / RFU OR2T12 /// OR2T33 /// OR2T8 (11738714_s_at) / Fold change /veh OR2T12 /// OR2T33 /// OR2T8 (11738714_s_at) / RFU VCAN (11748164_a_at) / Fold change /veh VCAN (11748164_a_at) / RFU JSRP1 (11732532_at) / Fold change /veh JSRP1 (11732532_at) / RFU KRTAP10-11 (11738290_x_at) / Fold change /veh KRTAP10-11 (11738290_x_at) / RFU MYO3A (11730013_a_at) / Fold change /veh MYO3A (11730013_a_at) / RFU EBF3 (11725865_a_at) / Fold change /veh EBF3 (11725865_a_at) / RFU CAMK2N1 (11719241_x_at) / Fold change /veh CAMK2N1 (11719241_x_at) / RFU C5orf56 (11738088_a_at) / Fold change /veh C5orf56 (11738088_a_at) / RFU OLFML3 (11715873_a_at) / Fold change /veh OLFML3 (11715873_a_at) / RFU LOC100653217 /// NTM (11731650_a_at) / Fold change /veh LOC100653217 /// NTM (11731650_a_at) / RFU MAPK11 (11762145_a_at) / Fold change /veh MAPK11 (11762145_a_at) / RFU FIZ1 (11724087_x_at) / Fold change /veh FIZ1 (11724087_x_at) / RFU OASL (11726364_x_at) / Fold change /veh OASL (11726364_x_at) / RFU SOX15 (11748057_x_at) / Fold change /veh SOX15 (11748057_x_at) / RFU CD79A (11719716_a_at) / Fold change /veh CD79A (11719716_a_at) / RFU HIST1H1D (11736915_at) / Fold change /veh HIST1H1D (11736915_at) / RFU CASKIN2 (11723855_a_at) / Fold change /veh CASKIN2 (11723855_a_at) / RFU LOC730098 (11760151_x_at) / Fold change /veh LOC730098 (11760151_x_at) / RFU OR4N2 (11742367_at) / Fold change /veh OR4N2 (11742367_at) / RFU PRRT2 (11749266_a_at) / Fold change /veh PRRT2 (11749266_a_at) / RFU SNX32 (11753110_a_at) / Fold change /veh SNX32 (11753110_a_at) / RFU CDHR5 (11726645_a_at) / Fold change /veh CDHR5 (11726645_a_at) / RFU RCAN1 (11760418_a_at) / Fold change /veh RCAN1 (11760418_a_at) / RFU FAM167A (11723789_a_at) / Fold change /veh FAM167A (11723789_a_at) / RFU FAM26E (11764081_at) / Fold change /veh FAM26E (11764081_at) / RFU ISYNA1 (11749810_s_at) / Fold change /veh ISYNA1 (11749810_s_at) / RFU ACY1 (11761880_at) / Fold change /veh ACY1 (11761880_at) / RFU 11764098_at / Fold change /veh 11764098_at / RFU SAMD14 (11745864_x_at) / Fold change /veh SAMD14 (11745864_x_at) / RFU NPB (11741838_a_at) / Fold change /veh NPB (11741838_a_at) / RFU TMPRSS6 (11731388_a_at) / Fold change /veh TMPRSS6 (11731388_a_at) / RFU KRTAP10-2 (11738614_at) / Fold change /veh KRTAP10-2 (11738614_at) / RFU ARHGAP8 /// PRR5-ARHGAP8 (11727945_x_at) / Fold change /veh ARHGAP8 /// PRR5-ARHGAP8 (11727945_x_at) / RFU KRTAP5-7 /// NADSYN1 (11734609_at) / Fold change /veh KRTAP5-7 /// NADSYN1 (11734609_at) / RFU RASL12 (11751679_a_at) / Fold change /veh RASL12 (11751679_a_at) / RFU CDKN2B (11736163_a_at) / Fold change /veh CDKN2B (11736163_a_at) / RFU PRF1 (11729649_at) / Fold change /veh PRF1 (11729649_at) / RFU, ZNF638 /// ZNF638-IT1 / Fold change vs veh, ZNF638 /// ZNF638-IT1 / RFU, PANK3 / Fold change vs veh, PANK3 / RFU, SH3YL1 / Fold change vs veh, SH3YL1 / RFU, ZEB2 / Fold change vs veh, ZEB2 / RFU, NRIP1 / Fold change vs veh, NRIP1 / RFU, PTTG1IP / Fold change vs veh, PTTG1IP / RFU, CAPN2 / Fold change vs veh, CAPN2 / RFU, MED14 / Fold change vs veh, MED14 / RFU, SNORA58 / Fold change vs veh, SNORA58 / RFU, C1orf63 / Fold change vs veh, C1orf63 / RFU, LRRFIP1 / Fold change vs veh, LRRFIP1 / RFU, NDUFAF7 / Fold change vs veh, NDUFAF7 / RFU, SLC12A2 / Fold change vs veh, SLC12A2 / RFU, IBTK / Fold change vs veh, IBTK / RFU, ESF1 / Fold change vs veh, ESF1 / Fold change vs veh, TMEM50B / RFU, TAOK1 / Fold change vs veh, TAOK1 / RFU, ACBD3 / Fold change vs veh, ACBD3 / RFU, TMA16 / Fold change vs veh, TMA16 / RFU, RWDD3 / Fold change vs veh, RWDD3 / RFU, BCAT1 / Fold change vs veh, BCAT1 / RFU, EDEM3 / Fold change vs veh, EDEM3 / RFU, TMEM33 / Fold change vs veh, TMEM33 / RFU, WDR75 / Fold change vs veh, WDR75 / RFU, AHCTF1 / Fold change vs veh, AHCTF1 / RFU, TFRC / Fold change vs veh, TFRC / RFU, ZDHHC17 / Fold change vs veh, ZDHHC17 / RFU, NOM1 / Fold change vs veh, NOM1 / RFU, ARL8B / Fold change vs veh, ARL8B / RFU, ZBTB11 / Fold change vs veh, ZBTB11 / RFU, TAMM41 / Fold change vs veh, TAMM41 / RFU, KIAA1704 /// LOC100996395 / Fold change vs veh, KIAA1704 /// LOC100996395 / RFU, ING1 / Fold change vs veh, ING1 / RFU, TRMT61B / Fold change vs veh, TRMT61B / RFU, FUBP3 / Fold change vs veh, FUBP3 / RFU, TP53 / Fold change vs veh, TP53 / RFU, TNKS2 / Fold change vs veh, TNKS2 / RFU, ZFP14 / Fold change vs veh, ZFP14 / RFU, ACTR2 / Fold change vs veh, ACTR2 / RFU, PPP3R1 / Fold change vs veh, PPP3R1 / RFU, PIK3R1 / Fold change vs veh, PIK3R1 / RFU, HNRNPA1 / Fold change vs veh, HNRNPA1 / RFU, RNF170 / Fold change vs veh, RNF170 / RFU, ZNF28 / Fold change vs veh, ZNF28 / RFU, RNGTT / Fold change vs veh, RNGTT / RFU, OGT / Fold change vs veh, OGT / RFU, BRD1 / Fold change vs veh, BRD1 / RFU, MARS / Fold change vs veh, MARS / RFU, ZNF655 / Fold change vs veh, ZNF655 / RFU, FAHD1 / Fold change vs veh, FAHD1 / RFU, BDP1 / Fold change vs veh, BDP1 / RFU, LRRCC1 / Fold change vs veh, LRRCC1 / RFU, ARID1A / Fold change vs veh, ARID1A / RFU, ZNF146 / Fold change vs veh, ZNF146 / RFU, ZNF330 / Fold change vs veh, ZNF330 / RFU, GPN3 / Fold change vs veh, GPN3 / RFU, C9orf123 / Fold change vs veh, C9orf123 / RFU, N4BP2L2 / Fold change vs veh, N4BP2L2 / RFU, ARFIP1 / Fold change vs veh, ARFIP1 / RFU, FAM179B / Fold change vs veh, FAM179B / RFU, BCL10 / Fold change vs veh, BCL10 / RFU, UHRF1BP1L / Fold change vs veh, UHRF1BP1L / RFU, BET1 / Fold change vs veh, BET1 / RFU, CNOT2 / Fold change vs veh, CNOT2 / RFU, ZNF268 / Fold change vs veh, ZNF268 / Fold change vs veh, ZNF507 / RFU, DGCR2 / Fold change vs veh, DGCR2 / RFU, WDSUB1 / Fold change vs veh, WDSUB1 / Fold change vs veh, HSP90B1 /// MIR3652 / RFU, ADSS / Fold change vs veh, ADSS / RFU, GK / Fold change vs veh, GK / RFU, ZNF148 / Fold change vs veh, ZNF148 / RFU, TAF9 / Fold change vs veh, TAF9 / RFU, SLC1A5 / Fold change vs veh, SLC1A5 / RFU, SLMO2 / Fold change vs veh, SLMO2 / RFU, ABCC4 / Fold change vs veh, ABCC4 / RFU, LOC101060439 /// RAP1B / Fold change vs veh, LOC101060439 /// RAP1B / RFU, RFX7 / Fold change vs veh, RFX7 / RFU, GTPBP10 / Fold change vs veh, GTPBP10 / RFU, CNEP1R1 / Fold change vs veh, CNEP1R1 / RFU, BIVM-ERCC5 /// ERCC5 / Fold change vs veh, BIVM-ERCC5 /// ERCC5 / RFU, ILF3 / Fold change vs veh, ILF3 / RFU 11762660_at / Fold change /veh 11762660_at / RFU VCAN (11757783_s_at) / Fold change /veh VCAN (11757783_s_at) / RFU DDX43 (11728927_at) / Fold change /veh DDX43 (11728927_at) / RFU KRT8 (11758188_x_at) / Fold change /veh KRT8 (11758188_x_at) / RFU NKD1 (11759106_at) / Fold change /veh NKD1 (11759106_at) / RFU SRD5A1 (11742802_a_at) / Fold change /veh SRD5A1 (11742802_a_at) / RFU TPSAB1 /// TPSB2 (11721975_s_at) / Fold change /veh TPSAB1 /// TPSB2 (11721975_s_at) / RFU GSTM3 (11746129_a_at) / Fold change /veh GSTM3 (11746129_a_at) / RFU IL23R (11737362_x_at) / Fold change /veh IL23R (11737362_x_at) / RFU TMEM51 (11727254_a_at) / Fold change /veh TMEM51 (11727254_a_at) / RFU PIWIL2 (11732686_x_at) / Fold change /veh PIWIL2 (11732686_x_at) / RFU ORM1 (11744905_x_at) / Fold change /veh ORM1 (11744905_x_at) / RFU CCDC152 (11743942_at) / Fold change /veh CCDC152 (11743942_at) / RFU ECM1 (11717891_a_at) / Fold change /veh ECM1 (11717891_a_at) / RFU IL23R (11748794_a_at) / Fold change /veh IL23R (11748794_a_at) / RFU TNFAIP8L3 (11732012_x_at) / Fold change /veh TNFAIP8L3 (11732012_x_at) / RFU MBOAT4 (11741988_at) / Fold change /veh MBOAT4 (11741988_at) / RFU 11764193_at / Fold change /veh 11764193_at / RFU TMEM53 (11763286_at) / Fold change /veh TMEM53 (11763286_at) / RFU MAGEB2 (11727129_at) / Fold change /veh MAGEB2 (11727129_at) / RFU TMEM200A (11744735_a_at) / Fold change /veh TMEM200A (11744735_a_at) / RFU CCDC152 (11751479_a_at) / Fold change /veh CCDC152 (11751479_a_at) / RFU FAM211A (11726209_a_at) / Fold change /veh FAM211A (11726209_a_at) / RFU RGS16 (11746705_a_at) / Fold change /veh RGS16 (11746705_a_at) / RFU VCAN (11755009_s_at) / Fold change /veh VCAN (11755009_s_at) / RFU RHOB (11743442_s_at) / Fold change /veh RHOB (11743442_s_at) / RFU RGS16 (11720943_a_at) / Fold change /veh RGS16 (11720943_a_at) / RFU RGS16 (11720944_at) / Fold change /veh RGS16 (11720944_at) / RFU, VPS4B / Fold change vs veh, VPS4B / RFU, CREB1 / Fold change vs veh, CREB1 / RFU, DNAJC13 / Fold change vs veh, DNAJC13 / RFU, GNAQ / Fold change vs veh, GNAQ / RFU, CDK5R1 / Fold change vs veh, CDK5R1 / RFU, ZRANB3 / Fold change vs veh, ZRANB3 / RFU, CUL4A / Fold change vs veh, CUL4A / RFU, CCNY / Fold change vs veh, CCNY / RFU, UFL1 / Fold change vs veh, UFL1 / RFU, COG3 / Fold change vs veh, COG3 / RFU, DIAPH2 / Fold change vs veh, DIAPH2 / RFU, SKA2 / Fold change vs veh, SKA2 / RFU, AFF3 / Fold change vs veh, AFF3 / RFU, LMF1 / Fold change vs veh, LMF1 / RFU, IPO11 / Fold change vs veh, IPO11 / RFU, DFFB / Fold change vs veh, DFFB / RFU, FOXP1 / Fold change vs veh, FOXP1 / RFU, CARD8 / Fold change vs veh, CARD8 / RFU, STRN3 / Fold change vs veh, STRN3 / RFU, ADK / Fold change vs veh, ADK / RFU, RASSF2 / Fold change vs veh, RASSF2 / RFU, WIPF1 / Fold change vs veh, WIPF1 / RFU, LARP1B / Fold change vs veh, LARP1B / RFU, RASA1 / Fold change vs veh, RASA1 / RFU, RB1 / Fold change vs veh, RB1 / RFU, PPFIA1 / Fold change vs veh, PPFIA1 / RFU, MAT2A / Fold change vs veh, MAT2A / RFU, CCT5 / Fold change vs veh, CCT5 / RFU, WDR92 / Fold change vs veh, WDR92 / RFU, CUX1 / Fold change vs veh, CUX1 / RFU, TTC7A / Fold change vs veh, TTC7A / RFU, TMEM135 / Fold change vs veh, TMEM135 / RFU, DEPTOR / Fold change vs veh, DEPTOR / RFU, CPM / Fold change vs veh, CPM / RFU, DNAJB6 / Fold change vs veh, DNAJB6 / RFU, CACNA2D3 / Fold change vs veh, CACNA2D3 / RFU, DTX4 / Fold change vs veh, DTX4 / RFU, TFCP2 / Fold change vs veh, TFCP2 / RFU, GMCL1 /// GMCL1P1 / Fold change vs veh, GMCL1 /// GMCL1P1 / RFU, AEBP2 / Fold change vs veh, AEBP2 / RFU, SNHG1 /// SNORD22 /// SNORD25 /// SNORD26 /// SNORD27 /// SNORD28 /// SNORD29 /// SNORD31 / Fold change vs veh, SNHG1 /// SNORD22 /// SNORD25 /// SNORD26 /// SNORD27 /// SNORD28 /// SNORD29 /// SNORD31 / Fold change (Aza/veh), C12orf56 (ProbeSet 11735607_a_at) / Fold change (ACY-1035/veh), C12orf56 (ProbeSet 11735607_a_at) / Fold change (Aza/veh), FGFR1OP (ProbeSet 11751329_s_at) / Fold change (ACY-1035/veh), FGFR1OP (ProbeSet 11751329_s_at) / Fold change (Aza/veh), VPS36 (ProbeSet 11739960_a_at) / Fold change (ACY-1035/veh), VPS36 (ProbeSet 11739960_a_at) / RFU SYPL1 (11715823_x_at) / Fold change /veh SYPL1 (11715823_x_at) / RFU IGFBP7 (11715501_s_at) / Fold change /veh IGFBP7 (11715501_s_at) / RFU REEP3 (11722064_at) / Fold change /veh REEP3 (11722064_at) / RFU IGLL1 (11728026_x_at) / Fold change /veh IGLL1 (11728026_x_at): dose or concentration left out as unconfirmed
Settings: MV-4-11 cells, 48 hours

SMILES: Nc1ccc(-c2cccs2)cc1NC(=O)c1ccc2c(c1)cc(C1CC1)n2CCN1CCOCC1 [ACY-1035]
- RFU TMCC2 (11721928_a_at): 13.59 RFU
